From PubChem BioAssay (NCI)
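These data come from cells grown in 96-well plates and exposed to compound for 48 hours at five concentrations. At the GI50, growth is halved. TGI denotes the concentration required for complete inhibition of growth.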

Key:
Test in all cases: DTP human tumour cell line panel, 48 h
[1] = system: A498 renal
[2] = system: ACHN renal
[3] = system: M14 melanoma
[4] = system: MOLT-4 leukemia
[5] = system: NCI-H23 lung
[6] = system: OVCAR-3 ovarian
[7] = system: SK-OV-3 ovarian
[8] = system: HS 578T breast
[9] = system: MCF7 breast
[10] = system: T-47D breast

Row | Compound | GI50 [1] [µM] | TGI [1] [µM] | GI50 [2] [µM] | TGI [2] [µM] | GI50 [3] [µM] | TGI [3] [µM] | GI50 [4] [µM] | TGI [4] [µM] | GI50 [5] [µM] | TGI [5] [µM] | GI50 [6] [µM] | TGI [6] [µM] | GI50 [7] [µM] | TGI [7] [µM] | GI50 [8] [µM] | TGI [8] [µM] | GI50 [9] [µM] | TGI [9] [µM] | GI50 [10] [µM] | TGI [10] [µM]
1 | N[C@@H]1CCCC[C@@H]1N.O=C([O-])CN(CP(=O)([O-])[O-])CP(=O)([O-])[O-].[Pt+2] | > 100 | > 100 | > 100 | > 100 | > 100 | > 100 | 82.5 | > 100 | > 100 | > 100 | > 100 | > 100 | > 100 | > 100 |  |  |  |  |  | 
2 | COC(=O)/C(=C/c1ccc(OC)cc1)NC(=O)c1ccccc1 |  | > 100 |  | > 100 |  | > 100 |  | > 100 |  | > 100 |  |  |  | > 100 |  |  |  |  |  | 
3 | OCC#Cc1ccccc1C#Cc1ccc(C#Cc2ccccc2C#CCO)s1 |  |  | 19.1 | 43.3 | 23.3 | 49 |  |  | 18.3 | 33.4 | 12.8 | 25.4 | 15.9 | 34.4 | 22.3 | 58.1 | 29.9 | > 100 | 17.3 | 53.8
4 | CC(C)(C)OC(=O)CN1CCc2c(sc3ncnc(N/N=C/c4cccc5ccccc45)c23)C1 | 3.78 | 11.9 | 1.59 | 7.5 |  |  | 1.26 | 9.39 | 4.19 | 17.4 | 1 | 3.92 | 4.48 | 26.1 | 1.42 | 16 | 0.923 | 2.85 | 1.83 | 17.9
5 | O=[N+]([O-])c1ccc(/C=C(/c2ccc([N+](=O)[O-])o2)S(=O)(=O)c2ccccc2)o1 |  |  |  | 8.69 |  | 25.5 |  |  |  | 38 |  | 29 |  | 90.8 |  | 44.3 |  | 72.7 |  | > 100
6 | Cc1cc(C)c2c(SCc3ccc(Cl)cc3Cl)nc(N)nc2n1 |  | > 100 |  | > 100 |  | > 100 |  |  |  | > 100 |  | 76.2 |  | > 100 |  | > 100 |  | > 100 |  | 47
7 | Cn1c2ccccc2c(=O)c2c([N+](=O)[O-])ccc(NCCN)c21 |  | 31 |  | 19.7 |  | 27.4 |  | 7.95 |  | 23.6 |  | 27.2 |  | 29.4 |  |  |  |  |  | 
8 | c1cc[c]([Sn]([S]c2cccc3cccnc23)([S]c2cccc3cccnc23)[c]2ccccc2)cc1 | 0.0359 | 0.202 | 0.209 | 0.496 | 0.188 | 0.393 | 0.101 | 0.542 | 0.198 | 0.46 | 0.165 | 0.361 | 0.588 | 2.07 |  |  |  |  |  | 
9 | O=C(O)/C(=C\c1ccccc1Cl)S(=O)(=O)c1ccccc1 |  | > 100 |  | > 100 |  | > 100 |  | > 100 |  |  |  |  |  | > 100 |  |  |  |  |  | 
10 | BrC1=CC=C2NCCCCCCN=C3C=CC(Br)=CC=C3NCCCCCCN=C2C=C1 |  | > 25.5 |  | > 25.5 |  | > 25.5 |  | > 25.5 |  | > 25.5 |  | > 25.5 |  | > 25.5 |  |  |  |  |  | 
11 | CC1(C)CC(=O)C(=[N+]=[N-])C(=O)C1 |  |  |  | > 100 |  | > 100 |  |  |  | > 100 |  | > 100 |  | > 100 |  |  |  |  |  | 
12 | Cc1cccc2c1O/C(=C\c1ccc([N+](=O)[O-])o1)C2=O | 1.76 | 4.63 | 0.367 | 1.44 | 1.43 | 3.21 | 1.52 | 5.7 | 1.35 | 3.41 | 0.689 | 1.89 | 2.57 | 8.28 | 2.25 | > 25 |  |  | 1.2 | 3.69
13 | Cc1ccc(NC(=O)C2C(=O)N(c3ccc(C)c(C)c3)C(=O)/C2=N\NC(N)=S)cc1C (stereo unspecified) |  |  |  | > 100 |  | > 100 |  | > 100 |  | > 100 |  | > 100 |  | > 100 |  |  |  |  |  | 
14 | COC(=O)OCc1ccc2c(c1)C(=O)c1c-2n(CCCBr)c(=O)c2cc([N+](=O)[O-])ccc12 | 57.6 | > 100 | 24.2 | 93.8 |  |  | 31.6 | > 100 |  |  | > 100 | > 100 | 31.1 | > 100 | 31 | > 100 | > 100 | > 100 | > 100 | > 100
15 | Cc1cc(C)n(C(=O)c2nn(-c3ccc(Cl)cc3)cc2O)n1 | 2.9 | 8.77 | 3.77 | > 100 | 4.69 | > 100 |  |  | 3.31 | > 100 | 12.7 | 87.7 | 7.04 | 66.1 | 3.21 | > 100 | 4.52 | > 100 | 3.67 | > 100
16 | CC(O)(CNS(=O)(=O)c1ccccc1)c1ccccc1 (stereo unspecified) |  | > 100 |  | > 100 |  | > 100 |  |  |  | > 100 |  | > 100 |  | > 100 |  | > 100 |  | > 100 |  | > 100
17 | Cc1cccc(C)c1NC(=O)CCC(=O)NC(N)=S |  | > 100 |  | > 100 |  | > 100 |  | > 100 |  | > 100 |  | > 100 |  | > 100 |  |  |  |  |  | 
18 | CCOc1ccc2ccc3cccnc3c2n1 |  | 76 |  | > 100 |  | > 100 |  |  |  | > 100 |  | 58.4 |  | 95.2 |  | > 100 |  | 45.8 |  | > 100
19 | COc1cc2c([C@@H](OC(=O)c3ccccc3)c3ccc4c(c3)OCO4)nccc2c(OC)c1OC |  | > 100 |  |  |  | > 100 |  | > 100 |  | > 100 |  | > 100 |  | > 100 |  |  |  |  |  | 
20 | CN1CCN(c2ccc(NC3=C(Cl)C(=O)c4ncccc4C3=O)cc2C#N)CC1 | 11.7 | 25.3 | 1.15 | 2.36 | 1.74 | 3.57 | 1.04 | 5.31 | 2.15 | 6.22 | 0.229 | 1 | 13.8 | 27.5 | 2.14 | 5.47 |  |  | 1.76 | 5.26
